# Data published in patent US20160113282A1 (HONBU SANKEI CO., LTD., priority 2013, published 2016).
# Values joined by “and” are separate entries in the source; they are usually repeats but may differ in a detail not shown here. Equal entries are not always repeated. Where two headings read alike, the source gives them in different places.
# Assays:
# [1] = tested on: Herpes simplex virus type I VR-539; test: Inactivation of herpesviruses, plaque assay on Vero cells; type: cell-based
# [2] = tested on: influenza virus Type A Aichi strain A/Aichi/68 (H3N2); type: cell-based
# [3] = tested on: feline calicivirus F4 strain; test: Inactivation of feline caliciviruses (Example 10), plaque assay on CRFK cells; type: cell-based
# [4] = tested on: poliovirus type I live vaccine strain
# influenza viruses = details: pH 6.5 (FIG. 4)
# [5] = tested on: feline calicivirus F4 strain
molecule,measurement,setting,value
[Na+].[O-]Cl [(4) sodium hypochlorite aqueous solution],Number of Residual Viruses in Test Solution/Number of Residual Viruses only with Buffer × 100 (%),"[1]; pH 4.5, 200 ppm",below the detectable limit
chlorous acid [Chlorous acid aqueous solution],concentration at which influenza viruses were inactivated to below the detectable limit,[2]; pH 5.5,≤ 100 ppm
same,ratio of the amount of residual infectious viruses,[2]; pH 5.5,0.34
same,infectious viruses decreased to,[2]; pH 6.5,about 1%
same,ratio of the amount of residual infectious viruses,[2]; pH 6.5,0.63
same,concentration at which viruses were inactivated to about the detectable limit,[2]; pH 7.5,200 ppm
same,ratio of the amount of residual infectious viruses,[2]; pH 7.5,1.16
same,virus disinfection effect on influenza viruses,[2]; pH 7.5,significant virus disinfection effect
same,effect on influenza viruses,[2]; pH 8.5,there is an effect even at pH of 8.5
same,ratio of the amount of residual infectious viruses,[2]; pH 8.5,1.31
same,concentration exhibiting a superb sterilizing effect on HSV-I,[1]; pH 4.5-5.5,≥ 100 ppm
same,Number of Residual Viruses in Test Solution/Number of Residual Viruses only with Buffer × 100 (%),"[1]; pH 4.5, 10 ppm",48%
same,Number of Residual Viruses in Test Solution/Number of Residual Viruses only with Buffer × 100 (%),"[1]; pH 4.5, 50 ppm",1.3%
same,Number of Residual Viruses in Test Solution/Number of Residual Viruses only with Buffer × 100 (%),"[1]; pH 4.5, 100 ppm",<0.3%
same,Number of Residual Viruses in Test Solution/Number of Residual Viruses only with Buffer × 100 (%),"[1]; pH 4.5, 100 ppm, listed as chlorous acid aqueous solution",below the detectable limit
same,Number of Residual Viruses in Test Solution/Number of Residual Viruses only with Buffer × 100 (%),"[1]; pH 4.5, 150 ppm",<0.2%
same,Number of Residual Viruses in Test Solution/Number of Residual Viruses only with Buffer × 100 (%),"[1]; pH 4.5, 150 ppm, listed as chlorous acid aqueous solution",below the detectable limit
same,Number of Residual Viruses in Test Solution/Number of Residual Viruses only with Buffer × 100 (%),"[1]; pH 4.5, 200 ppm",<0.4%
same,Number of Residual Viruses in Test Solution/Number of Residual Viruses only with Buffer × 100 (%),"[1]; pH 4.5, 200 ppm, listed as chlorous acid aqueous solution",below the detectable limit
same,Number of Residual Viruses in Test Solution/Number of Residual Viruses only with Buffer × 100 (%),"[1]; pH 5.5, 10 ppm",100%
same,Number of Residual Viruses in Test Solution/Number of Residual Viruses only with Buffer × 100 (%),"[1]; pH 5.5, 50 ppm",12.1%
same,Number of Residual Viruses in Test Solution/Number of Residual Viruses only with Buffer × 100 (%),"[1]; pH 5.5, 100 ppm",10.1%
same,Number of Residual Viruses in Test Solution/Number of Residual Viruses only with Buffer × 100 (%),"[1]; pH 5.5, 150 ppm",<0.2%
same,Number of Residual Viruses in Test Solution/Number of Residual Viruses only with Buffer × 100 (%),"[1]; pH 5.5, 150 ppm, listed as chlorous acid aqueous solution",below the detectable limit
same,Number of Residual Viruses in Test Solution/Number of Residual Viruses only with Buffer × 100 (%),"[1]; pH 5.5, 200 ppm",<0.5%
same,Number of Residual Viruses in Test Solution/Number of Residual Viruses only with Buffer × 100 (%),"[1]; pH 5.5, 200 ppm, listed as chlorous acid aqueous solution",below the detectable limit
same,Number of Residual Viruses in Test Solution/Number of Residual Viruses only with Buffer × 100 (%),"[1]; pH 6.5, 10 ppm",100%
same,Number of Residual Viruses in Test Solution/Number of Residual Viruses only with Buffer × 100 (%),"[1]; pH 6.5, 50 ppm",63.6%
same,Number of Residual Viruses in Test Solution/Number of Residual Viruses only with Buffer × 100 (%),"[1]; pH 6.5, 100 ppm",76.6%
same,Number of Residual Viruses in Test Solution/Number of Residual Viruses only with Buffer × 100 (%),"[1]; pH 6.5, 150 ppm",22.2%
same,Number of Residual Viruses in Test Solution/Number of Residual Viruses only with Buffer × 100 (%),"[1]; pH 6.5, 200 ppm",<0.6%
same,Number of Residual Viruses in Test Solution/Number of Residual Viruses only with Buffer × 100 (%),"[1]; pH 7.5, 10 ppm",100%
same,Number of Residual Viruses in Test Solution/Number of Residual Viruses only with Buffer × 100 (%),"[1]; pH 7.5, 50 ppm",77.4%
same,Number of Residual Viruses in Test Solution/Number of Residual Viruses only with Buffer × 100 (%),"[1]; pH 7.5, 100 ppm",84.7%
same,Number of Residual Viruses in Test Solution/Number of Residual Viruses only with Buffer × 100 (%),"[1]; pH 7.5, 150 ppm",55.8%
same,Number of Residual Viruses in Test Solution/Number of Residual Viruses only with Buffer × 100 (%),"[1]; pH 7.5, 200 ppm",16.8%
same,Number of Residual Viruses in Test Solution/Number of Residual Viruses only with Buffer × 100 (%),"[1]; pH 8.5, 10 ppm",100%
same,Number of Residual Viruses in Test Solution/Number of Residual Viruses only with Buffer × 100 (%),"[1]; pH 8.5, 50 ppm",75.3%
same,Number of Residual Viruses in Test Solution/Number of Residual Viruses only with Buffer × 100 (%),"[1]; pH 8.5, 100 ppm",98.4%
same,Number of Residual Viruses in Test Solution/Number of Residual Viruses only with Buffer × 100 (%),"[1]; pH 8.5, 150 ppm",80%
same,Number of Residual Viruses in Test Solution/Number of Residual Viruses only with Buffer × 100 (%),"[1]; pH 8.5, 200 ppm",30%
same,concentration giving a sufficient effect,[1]; pH of 6.5 or lower (FIG. 2B),≥ 200 ppm
same,concentration giving a sufficient sterilizing effect,[1]; significant at pH of 5.5 or lower (FIG. 2B),≥ 50 ppm
same,active chlorine concentration at which feline caliciviruses were inactivated to below the detectable limit,[3],≥ 200 ppm
same,effect of pH on inactivation of feline caliciviruses,[3],hardly any effect due to pH
same,disinfection of polioviruses,[4],disinfection was only observed at pH of 5.5
same,concentration at which most polioviruses were disinfected,[4]; pH 5.5,500 ppm
same,contact needed to completely inactivate influenza viruses,influenza viruses; 5 ppm chlorous acid concentration,one minute or less
same,time after which disinfecting of influenza viruses was almost completed,influenza viruses; 5 ppm upon contact,~30 s
same,concentration with disinfecting capability against feline caliciviruses,[5],400 ppm
same,ratio of the amount of residual infectious viruses,[5],0.38 and 0.66
sodium chlorite [Sodium chlorite aqueous solution],ratio of the amount of residual infectious viruses,[2]; pH 5.5,1.07
same,residual relative infectivity,[2]; pH 5.5,1/10
same,ratio of the amount of residual infectious viruses,[2]; pH 6.5,1.19
same,ratio of the amount of residual infectious viruses,[2]; pH 7.5,1.09
same,ratio of the amount of residual infectious viruses,[2]; pH 8.5,1.07
same,Number of Residual Viruses in Test Solution/Number of Residual Viruses only with Buffer × 100 (%),"[1]; pH 4.5, 10 ppm",52%
same,Number of Residual Viruses in Test Solution/Number of Residual Viruses only with Buffer × 100 (%),"[1]; pH 4.5, 50 ppm",51.5%
same,Number of Residual Viruses in Test Solution/Number of Residual Viruses only with Buffer × 100 (%),"[1]; pH 4.5, 100 ppm",27.6%
same,Number of Residual Viruses in Test Solution/Number of Residual Viruses only with Buffer × 100 (%),"[1]; pH 4.5, 150 ppm",34.4%
same,Number of Residual Viruses in Test Solution/Number of Residual Viruses only with Buffer × 100 (%),"[1]; pH 4.5, 200 ppm",<0.4%
same,Number of Residual Viruses in Test Solution/Number of Residual Viruses only with Buffer × 100 (%),"[1]; pH 5.5, 10 ppm",100%
same,Number of Residual Viruses in Test Solution/Number of Residual Viruses only with Buffer × 100 (%),"[1]; pH 5.5, 50 ppm",87.3%
same,Number of Residual Viruses in Test Solution/Number of Residual Viruses only with Buffer × 100 (%),"[1]; pH 5.5, 100 ppm",93.2%
same,Number of Residual Viruses in Test Solution/Number of Residual Viruses only with Buffer × 100 (%),"[1]; pH 5.5, 150 ppm",100%
same,Number of Residual Viruses in Test Solution/Number of Residual Viruses only with Buffer × 100 (%),"[1]; pH 5.5, 200 ppm",8.1%
same,Number of Residual Viruses in Test Solution/Number of Residual Viruses only with Buffer × 100 (%),"[1]; pH 6.5, 10 ppm",100%
same,Number of Residual Viruses in Test Solution/Number of Residual Viruses only with Buffer × 100 (%),"[1]; pH 6.5, 50 ppm",83.6%
same,Number of Residual Viruses in Test Solution/Number of Residual Viruses only with Buffer × 100 (%),"[1]; pH 6.5, 100 ppm",87.9%
same,Number of Residual Viruses in Test Solution/Number of Residual Viruses only with Buffer × 100 (%),"[1]; pH 6.5, 150 ppm",100%
same,Number of Residual Viruses in Test Solution/Number of Residual Viruses only with Buffer × 100 (%),"[1]; pH 6.5, 200 ppm",15.3%
same,Number of Residual Viruses in Test Solution/Number of Residual Viruses only with Buffer × 100 (%),"[1]; pH 7.5, 10 ppm",100%
same,Number of Residual Viruses in Test Solution/Number of Residual Viruses only with Buffer × 100 (%),"[1]; pH 7.5, 50 ppm",90.4%
same,Number of Residual Viruses in Test Solution/Number of Residual Viruses only with Buffer × 100 (%),"[1]; pH 7.5, 100 ppm",100%
same,Number of Residual Viruses in Test Solution/Number of Residual Viruses only with Buffer × 100 (%),"[1]; pH 7.5, 150 ppm",100%
same,Number of Residual Viruses in Test Solution/Number of Residual Viruses only with Buffer × 100 (%),"[1]; pH 7.5, 200 ppm",10.4%
same,Number of Residual Viruses in Test Solution/Number of Residual Viruses only with Buffer × 100 (%),"[1]; pH 8.5, 10 ppm",100%
same,Number of Residual Viruses in Test Solution/Number of Residual Viruses only with Buffer × 100 (%),"[1]; pH 8.5, 50 ppm",91.1%
same,Number of Residual Viruses in Test Solution/Number of Residual Viruses only with Buffer × 100 (%),"[1]; pH 8.5, 100 ppm",78.2%
same,Number of Residual Viruses in Test Solution/Number of Residual Viruses only with Buffer × 100 (%),"[1]; pH 8.5, 150 ppm",94%
same,Number of Residual Viruses in Test Solution/Number of Residual Viruses only with Buffer × 100 (%),"[1]; pH 8.5, 200 ppm",7.6%
